Assay results as given in article PMC5394527 (Journal of Medicinal Chemistry, 2017).
Like-named read-outs stand apart in the source and are kept apart here. One block for each molecule: values may come before it.

Columns and labels:
[1] = test system: p53 activation (MDM2, p53, p21, cleaved PARP, cleaved caspase-3) in SJSA-1 tumors; settings: mice, single oral dose 100 mg/kg
[2] = test system: SJSA-1 osteosarcoma tumor xenograft; settings: for antitumor activity in SJSA-1 xenograft model: mice; for antitumor efficacy (regression): last line of Table 6, SJSA-1 xenograft model in mice; for weight loss of mice during the experiment: SJSA-1 xenograft experiment, 30 or 100 mg/kg daily for 14 days
SJSA-1 cancer cell line [3] = settings: cited from earlier work
[4] = test system: SJSA-1 osteosarcoma tumor xenograft; settings: mice; cited from earlier work
MDM2 = MDM2 (Homo sapiens, UniProt Q00987)
Chain of MDM2 (Q00987 whole entry): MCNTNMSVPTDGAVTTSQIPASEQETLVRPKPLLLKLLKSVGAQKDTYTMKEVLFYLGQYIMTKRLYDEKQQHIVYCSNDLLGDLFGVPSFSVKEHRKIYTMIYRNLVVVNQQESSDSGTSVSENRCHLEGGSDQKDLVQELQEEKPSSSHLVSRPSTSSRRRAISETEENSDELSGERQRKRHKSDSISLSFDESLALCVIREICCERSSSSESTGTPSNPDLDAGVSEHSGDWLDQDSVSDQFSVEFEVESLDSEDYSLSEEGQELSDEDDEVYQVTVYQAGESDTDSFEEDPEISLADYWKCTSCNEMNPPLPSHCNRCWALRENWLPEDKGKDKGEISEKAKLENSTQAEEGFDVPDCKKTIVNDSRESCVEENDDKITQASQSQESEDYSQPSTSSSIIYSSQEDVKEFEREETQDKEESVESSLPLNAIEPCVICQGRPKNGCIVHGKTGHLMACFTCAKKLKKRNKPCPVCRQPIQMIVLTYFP

SJSA-1 cancer cell line [5] = test: cells; settings: Homo sapiens, SJSA-1, read-out: SJSA-1 IC50, cell growth inhibition
[6] = cited from earlier work
[7] = test system: RS4;11 acute lymphoblastic leukemia xenograft; settings: for antitumor activity in RS4;11 xenograft model: mice
[8] = oral gavage 100 mg/kg daily for 14 days
[9] = oral 30 mg/kg daily for 14 days

SMILES: O=C(O)[C@@H]1NC2(CCCCC2)[C@@]2(C(=O)Nc3cc(Cl)ccc32)[C@H]1c1cccc(Cl)c1F [Compound 29]
- IC50 (SJSA-1 cancer cell line [3]; read-out: SJSA-1 IC50, cell growth inhibition): > 10000 nM

SMILES: O=C(O)c1ccc(NC(=O)[C@@H]2NC3(CCCCC3)[C@@]3(C(=O)Nc4cc(Cl)ccc43)[C@H]2c2cccc(Cl)c2F)cc1 [Compound 39]
- stability in solution [6]: very stable in solution
- antitumor activity in SJSA-1 xenograft model [4]: partial tumor regression

SMILES: CC1(C)CCC2(CC1)N[C@@H](C(=O)Nc1ccc(C(=O)O)cc1)[C@H](c1cccc(Cl)c1F)[C@]21C(=O)Nc2cc(Cl)ccc21 [Compound 54, 4-((3′R,4′S,5′R)-6″-Chloro-4′-(3-chloro-2-fluorophenyl)-4,4-dimethyl-2″-oxodispiro[cyclo-hexane-1,2'-pyrrolidine-3′,3″-indoline]-5'-carboxamido)benzoic Acid]
- antitumor efficacy (regression) [2]: 87% regression
- antitumor activity in SJSA-1 xenograft model ([2]; oral gavage 50 mg/kg daily for 14 days): effectively retards tumor growth

SMILES: O=C(NC12CCC(C(=O)O)(CC1)CC2)[C@@H]1NC2(CCC(F)(F)CC2)[C@@]2(C(=O)Nc3cc(Cl)ccc32)[C@H]1c1cccc(Cl)c1F [Compound 57, 4-((3′R,4′S,5′R)-6″-Chloro-4′-(3-chloro-2-fluorophenyl)-4,4-difluoro-2″-oxodispiro[cyclohexane-1,2′-pyrrolidine-3′,3″-indoline]-5′-carboxamido)bicyclo[2.2.2]octane-1-carboxylic Acid]
- apoptosis induction (cleavage of PARP and caspase-3) in SJSA-1 xenograft tumor tissue [1]: modest effect on activation of p53 and induction of cleavage of PARP and caspase-3

SMILES: CS(=O)(=O)NC(=O)C12CCC(NC(=O)[C@@H]3NC4(CCCCC4)[C@@]4(C(=O)Nc5cc(Cl)ccc54)[C@H]3c3cccc(Cl)c3F)(CC1)CC2 [Compound 58, (3′R,4′S,5′R)-6″-Chloro-4′-(3-chloro-2-fluorophenyl)-N-(4-((methylsulfonyl)carbamoyl)-bicyclo[2.2.2]octan-1-yl)-2″-oxodispiro[cyclohexane-1,2′-pyrrolidine-3′,3″-indoline]-5′-carboxamide]
- apoptosis induction (cleavage of PARP and caspase-3) in SJSA-1 xenograft tumor tissue [1]: modest effect on activation of p53 and induction of cleavage of PARP and caspase-3

SMILES: CCN1[C@@H](C(=O)NC23CCC(C(=O)O)(CC2)CC3)[C@H](c2cccc(Cl)c2F)[C@]2(C(=O)Nc3cc(Cl)ccc32)C12CCCCC2 [Compound 60, 4-((3′R,4′S,5′R)-6″-Chloro-4′-(3-chloro-2-fluorophenyl)-1′-ethyl-2″-oxodispiro[cyclohexane-1,2′-pyrrolidine-3′,3″-indoline]-5′-carboxamido)bicyclo[2.2.2]octane-1-carboxylic Acid]
- antitumor activity in RS4;11 xenograft model ([7]; 200 mg/kg weekly dosing for 3 weeks): partial tumor regression
- tolerability in RS4;11 xenograft experiment ([7]; mice, 50, 75, 100 mg/kg daily or 200 mg/kg weekly): well tolerated at all doses and schedules
- antitumor activity in RS4;11 xenograft model ([7]; oral 100 mg/kg daily for 14 days): partial tumor regression
- chemical stability in solutions (1:1 CH3CN/H2O, 1:1 MeOH/H2O, cell culture media, 7 days): very stable in solutions for a period of 7 days
- persistence of p53 activation in SJSA-1 xenograft tumor tissue [1]: 24 h
- weight loss of mice during the experiment [2]: no or minimal weight loss
- antitumor activity in SJSA-1 xenograft model [2, 9]: effectively inhibits tumor growth
- antitumor activity in SJSA-1 xenograft model [2, 8]: complete and long-lasting tumor regression

More lines, main results first:

- purity retained (in solutions after 7 days (slow isomerization)): 93–96%
SMILES: CC(C)(C)C[C@@H]1N[C@@H](C(=O)N[C@H]2CC[C@H](O)CC2)[C@H](c2cccc(Cl)c2F)[C@]12C(=O)Nc1cc(Cl)ccc12 [Compound 2, reference compound]
- apoptosis induction (cleavage of PARP and caspase-3) in SJSA-1 xenograft tumor tissue [1]: induce strong apoptosis
- p53 activation (MDM2, p53, p21 levels) in SJSA-1 xenograft tumor tissue [1]: robust activation of p53
- antitumor activity in SJSA-1 xenograft model [2, 8]: complete tumor regression

- decomposition (after 2 days in cell culture media, UPLC): < 1%
SMILES: O=C(N[C@H]1CC[C@H](O)CC1)[C@@H]1NC2(CCCCC2)[C@@]2(C(=O)Nc3cc(Cl)ccc32)[C@H]1c1cccc(Cl)c1F [Compound 6, (3′R,4′S,5′R)-6″-Chloro-4′-(3-chloro-2-fluorophenyl)-N-((1r,4R)-4-hydroxycyclohexyl)-2″-oxodispiro[cyclohexane-1,2′-pyrrolidine-3′,3″-indoline]-5′-carboxamide]
- IC50 (SJSA-1 cancer cell line [3]; read-out: SJSA-1 cell growth inhibition IC50): 190 nM
- antitumor activity in SJSA-1 xenograft model [4]: strong tumor growth inhibition but not complete tumor regression

- no appreciable binding to MDM2 up to (MDM2): > 2 µM
SMILES: CNC(=O)[C@@H]1NC2(CCNCC2)[C@@]2(C(=O)Nc3cc(Cl)ccc32)[C@H]1c1cccc(Cl)c1F [Compound 8, (3R,4′S,5′R)-6-Chloro-4′-(3-chloro-2-fluorophenyl)-N-methyl-2-oxodispiro[indoline-3,3′-pyrrolidine-2′,4″-piperidine]-5′-carboxamide]

- IC50 (SJSA-1 cancer cell line [5]): > 2000 nM
SMILES: CN1[C@@H](c2nc(CC(=O)O)cs2)[C@H](c2cccc(Cl)c2F)[C@]2(C(=O)Nc3cc(Cl)ccc32)C12CCCCC2 [Compound 27, 2-(2-((3′R,4′S,5′R)-6″-Chloro-4′-(3-chloro-2-fluorophenyl)-1′-methyl-2″-oxodispiro[cyclohexane-1,2′-pyrrolidine-3′,3″-indolin]-5′-yl)thiazol-4-yl)acetic Acid]

- stability in solution (CH3CN/H2O, MeOH/H2O or cell culture media, 2 days): can decompose in solution
SMILES: O=C(N[C@H]1CC[C@H](C(=O)O)CC1)[C@@H]1NC2(CCCCC2)[C@@]2(C(=O)Nc3cc(Cl)ccc32)[C@H]1c1cccc(Cl)c1F [Compound 33, (1R,4r)-4-((3′R,4′S,5′R)-6″-Chloro-4′-(3-chloro-2-fluorophenyl)-2″-oxodispiro[cyclohexane-1,2′-pyrrolidine-3′,3″-indoline]-5′-carboxamido)cyclohexane-1-carboxylic Acid]
- antitumor activity in SJSA-1 xenograft model [2, 8]: effectively retard tumor growth, it failed to achieve tumor regression

- weight loss of mice during the experiment [2]: no or minimal weight loss
SMILES: O=C(NC12CCC(C(=O)O)(CC1)CC2)[C@@H]1NC2(CCCCC2)[C@@]2(C(=O)Nc3cc(Cl)ccc32)[C@H]1c1cccc(Cl)c1F [Compound 56, 4-((3′R,4′S,5′R)-6″-Chloro-4′-(3-chloro-2-fluorophenyl)-2″-oxodispiro[cyclohexane-1,2′-pyrrolidine-3′,3″-indoline]-5′-carboxamido)bicyclo[2.2.2]octane-1-carboxylic Acid]
- apoptosis induction (cleavage of PARP and caspase-3) in SJSA-1 xenograft tumor tissue [1]: no cleavage of PARP and caspase-3
- antitumor efficacy (regression) [2]: no regression

- weight loss of mice during the experiment [2]: no or minimal weight loss
SMILES: CN1[C@@H](C(=O)NC23CCC(C(=O)O)(CC2)CC3)[C@H](c2cccc(Cl)c2F)[C@]2(C(=O)Nc3cc(Cl)ccc32)C12CCCCC2 [Compound 59, 4-((3′R,4′S,5′R)-6″-Chloro-4′-(3-chloro-2-fluorophenyl)-1′-methyl-2″-oxodispiro[cyclohexane-1,2′-pyrrolidine-3′,3″-indoline]-5′-carboxamido)bicyclo[2.2.2]octane-1-carboxylic Acid]
- persistence of p53 activation in SJSA-1 xenograft tumor tissue [1]: 24 h
- antitumor activity in SJSA-1 xenograft model [2, 9]: effectively inhibits tumor growth
- antitumor activity in SJSA-1 xenograft model [2, 8]: complete and long-lasting tumor regression
